Results on 7 compounds are retold here after ChEMBL document CHEMBL1127179, “Synthesis and 5-HT3 receptor agonist activity of arylureas derived from histamine” (Bioorg Med Chem Lett, 1993).

Assay [1] has as its target Serotonin 3 (5-HT3) receptor. Nature of the assay: Binding affinity for the 5-hydroxytryptamine 3 receptor was evaluated in vitro by examining its ability to displace [3H]-BRL 43694. It is filed as protein-complex assay.
Assay [2] has as its target Serotonin 3 (5-HT3) receptor (Homo sapiens) (UniProt P46098+A5X5Y0+O95264+Q70Z44+Q8WXA8). Nature of the assay: Tested for 5-hydroxytryptamine 3 receptor antagonist activity by inhibiting the 5-HT evoked Bezold-Jarisch reflex. The class given is functional.

Turning to `CCOc1ccccc1NC(=O)NCCc1c[nH]cn1`, the “Log Ki” value in assay [1] is given as -7.35. In addition, the -Log ED50 in assay [2] is 7.2. In the same order, the values of `COc1ccccc1NC(=O)NCCc1c[nH]cn1` are -7.55 and 7. As for `Cn1nc(C(=O)NCCc2c[nH]cn2)c2ccccc21`, in assay [1], the “Log Ki” value is given as -7.84. Moreover, the -Log ED50 in assay [2] came to 6.9.

Regarding `COc1ccc(F)cc1NC(=O)NCCc1c[nH]cn1`, the “Log Ki” value in assay [1] is listed as -7.69. The same compound displayed a -Log ED50 in assay [2] of 7.4. Regarding `COc1cc(F)ccc1NC(=O)NCCc1c[nH]cn1`, the “Log Ki” value in assay [1] is listed as -7.39. In assay [2], this compound returned a -Log ED50 of 7. Taken in the same sequence, the figures for `COc1ccc(Cl)cc1NC(=O)NCCc1c[nH]cn1` were -8.86 and 6.8.

Regarding `NCCc1c[nH]c2ccc(O)cc12`, the -Log ED50 in assay [2] was found to be 7.4.
